These results are taken from patent US20080207614A1, “QUINAZOLINE DERIVATIVES FOR THE TREATMENT AND PREVENTION OF DIABETES AND OBESITY” (SK CHEMICALS CO., LTD., priority 2004, published 2008).

In the first assay the test system is C2C12 muscle cells. Description: Analysis of glucose absorption (2-deoxyglucose) in differentiated C2C12 muscle cells. The note with it: test materials 10 μM, times relative to control group. Type of assay: cell-based. Put shortly: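 Differentiated C2C12 myotubes (6 days in 1% serum) held 3 h in KRB with 5 mM glucose, then given test material at 10 μM. After 30 min, 0.2 μCi 2-deoxyglucose added for 20 min; uptake measured by radioactive counting of NaOH lysates.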
`CC(Nc1nc(-c2ccccc2)nc2ccccc12)c1ccccc1` (stereo not drawn) [Compound 87, (1-Phenylethyl)-(2-phenylquinazolino-4-yl)-amine]: the Glucose absorption was determined as 1.0.
On the same count and under the same terms, the value for `Fc1cccc(CCNc2nc(-c3cccnc3)nc3ccccc23)c1` [Compound 244, [2-(3-Fluorophenyl)-ethyl]-(2-pyridino-3-ylquinazolino-4-yl)-amine] was 0.4; that for `Fc1cccc(CCNc2nc(C3CCCCC3)nc3ccccc23)c1` [Compound 208, (2-Cyclohexylquinazolino-4-yl)-[2-(3-fluorophenyl)-ethyl]-amine] was 2.0; that for `OCCOCCNc1nc(-c2cccnc2)nc2ccccc12` [Compound 245, 2-[2-(2-Pyridino-3-ylquinazolino-4-ylamino)-ethoxy]-ethanol] was 1.2.
Still for that read-out and setting: the value for `c1ccc(CCNc2nc(-c3ccncc3)nc3ccccc23)cc1` [Compound 251, Phenethyl-(2-pyridino-4-ylquinazolino-4-yl)-amine] was 0.6.
Still for that read-out and setting: the value for `CCSc1nc(NCCOC)c2ccccc2n1` [Compound 34, (2-Ethylsulfanylquinazolino-4-yl)-(2-methoxy-ethyl)-amine] was 1.3; that for `c1ccc(CN2CCC(Nc3nc(-c4ccccc4)nc4ccccc34)CC2)cc1` [Compound 105, (1-Benzyl-piperidino-4-yl)-(2-phenylquinazolino-4-yl)-amine] was 1.2; that for `CC(C)c1ccc(Nc2nc(-c3ccccc3)nc3ccccc23)cc1` [Compound 72, (4-Isopropyl-phenyl)-(2-phenylquinazolino-4-yl)-amine] was 1.1.
As to `c1ccc(CCCCCNc2nc(-c3ccccc3)nc3ccccc23)cc1` [Compound 53, (5-Phenyl-pentyl)-(2-phenylquinazolino-4-yl)-amine], the Glucose absorption amounted to 1.2.
Same read-out and setting: the value for `CCSc1nc(NCCN2CCCCC2)c2ccccc2n1` [Compound 44, (2-Ethylsulfanylquinazolino-4-yl)-(2-piperidino-1-ylethyl)-amine] was 1.3.
The compound `c1ccc(-c2nc(NCc3ccncc3)c3ccccc3n2)cc1` [Compound 141, (2-Phenylquinazolino-4-yl)-pyridino-4-ylmethylamine] yielded a Glucose absorption of 2.1.
On the same count and under the same terms, the value for `CCCCc1ccc(Nc2nc(-c3ccccc3)nc3ccccc23)cc1` [Compound 79, (4-Butyl-phenyl)-(2-phenylquinazolino-4-yl)-amine] was 1.1; that for `OCCOCCNc1nc(Cc2ccccc2)nc2ccccc12` [Compound 221, 2-[2-(2-Benzylquinazolino-4-ylamino)-ethoxy]-ethanol] was 1.5.
Still for that read-out and setting: the value for `c1cncc(-c2nc(NCc3ccc4c(c3)OCO4)c3ccccc3n2)c1` [Compound 242, Benzo[1,3]dioxol-5-ylmethyl-(2-pyridino-3-ylquinazolino-4-yl)-amine] was 0.9; that for `O=[N+]([O-])c1ccc(CONc2nc(-c3ccccc3)nc3ccccc23)cc1` [Compound 161, O-(4-Nitrobenzyl)-N-(2-phenylquinazolino-4-yl)-hydroxylamine] was 1.1; that for `OCCNc1nc(-c2ccccn2)nc2ccccc12` [Compound 234, 2-(2-Pyridino-2-ylquinazolino-4-ylamino)-ethanol] was 1.1.
On the same count and under the same terms, the value for `c1ccc(-c2nc(NCCC(c3ccccc3)c3ccccc3)c3ccccc3n2)cc1` [Compound 136, (3,3-Diphenylpropyl)-(2-phenylquinazolino-4-yl)-amine] was 1.3.
Compound `COc1ccccc1Nc1nc(-c2ccccc2)nc2ccccc12` [Compound 77, (2-Methoxyphenyl)-(2-phenylquinazolino-4-yl)-amine] showed a Glucose absorption of 1.4.
Still for that read-out and setting: the value for `Clc1ccc(CNc2nc(-c3ccccc3)nc3ccccc23)cc1` [Compound 88, (4-Chlorobenzyl)-(2-phenylquinazolino-4-yl)-amine] was 1.1.
As for `COc1ccc(CNc2nc(-c3cccnc3)nc3ccccc23)cc1` [Compound 237, (4-Methoxybenzyl)-(2-pyridino-3-ylquinazolino-4-yl)-amine], the Glucose absorption is listed as 0.9.
In turn, `COc1ccc(CCNc2nc(-c3ccccc3)nc3ccccc23)cc1OC` [Compound 107, [2-(3,4-Dimethoxyphenyl)-ethyl]-(2-phenylquinazolino-4-yl)-amine] registered a Glucose absorption of 0.4.
The compound `CCCCCCCCCCCCCCCCNc1nc(-c2ccccc2)nc2ccccc12` [Compound 99, Hexadecyl-(2-phenylquinazolino-4-yl)-amine] returned a Glucose absorption of 1.4.

The subject of the next assay is AMPK. Description: Measurement of AMPK activity by Western blot in C2C12 cells. Format: cell-based. Also on record: key to AMPK activity (degree of phosphorylation of serine-79 and threonine-172): fold increase in threonine-172 phosphorylation. The note with it: 10 μM for 50 minutes, no superscript: Western blot of serine-79 and threonine-172 phosphorylation. The procedure: C2C12 cells were cultured and differentiated in the same manner as in Experimental Example 1. Treatment with the test materials was also performed in the same manner as in Experimental Example 1 (10 μM for 50 minutes). The culture medium was removed and the cells were washed for 2 times with PBS and protein extracts were obtained using a lysis buffer (50 mM tris-HCl, pH 7.4, 1% NP-40, 0.25% sodium deoxycholate, 150 mM NaCl, 1 mM EDTA, 1 mM PMSF, 1 mM sodium o-vanadate, 1 mM NaF, 1 μg/mL apronitin, 1 μg/mL leu-peptin, 1 μg/mL pepstatin). The AMPK activity was determined from Western blot analysis of the degree of phosphorylation of serine-79 […] acetyl CoA carboxylase and the degree of phosphorylation of threonine-172. The amount of ERK (extracellular signal regulated protein kinase) was confirmed by Western blot in order to quantify the proteins.
The result of Western blot analysis is given in Table 3 below, wherein “strong” means that the degree of phosphorylation of threonine-172 increased by 3 times or more, “mild” means that the degree of phosphorylation of threonine-172 increased by 1 to 3 times and “weak” means that the degree of phosphorylation of threonine-172 increased by less than 1 time.
For orientation: In western blotting, separated proteins are transferred to a membrane and probed.
With `COc1cc(CNc2nc(-c3cccs3)nc3ccccc23)cc(OC)c1OC` [Compound 356, (2-Thiopenyl-2-ylquinazolino-4-yl)-(3,4,5-trimethoxybenzyl)-amine], the “AMPK activity (degree of phosphorylation of serine-79 and threonine-172)” value is listed as 1.4.
On the same count and under the same terms, the value for `CCCc1nc(NCc2ccccc2OC)c2ccccc2n1` [Compound 393, (2-Methoxybenzyl)-(2-propylquinazolino-4-yl)-amine] was 1.0; that for `COc1ccc(OC)c(CNc2nc(N3CCOCC3)nc3ccccc23)c1` [Compound 297, (2,5-Dimethoxybenzyl)-(2-morpholino-4-ylquinazolino-4-yl)-amine] was 0.8; that for `COc1cccc(CNc2nc(C3CC3)nc3ccccc23)c1OC` [Compound 386, (2-Cyclopropylquinazolino-4-yl)-(2,3-dimethoxybenzyl)-amine] was 1.3.
Same read-out and setting: the value for `COc1cccc(CNc2nc(N3CCOCC3)nc3ccccc23)c1OC` [Compound 289, (2,3-Dimethoxybenzyl)-(2-morpholino-4-ylquinazolino-4-yl)-amine] was 1.5; that for `c1csc(-c2nc(NCc3ccc4c(c3)OCO4)c3ccccc3n2)c1` [Compound 352, Benzo[1,3]dioxol-5-ylmethyl-(2-thiopenyl-2-ylquinazolino-4-yl)-amine] was 0.5.
In the case of `COc1ccc(OC)c(CNc2nc(-c3ccco3)nc3ccccc23)c1` [Compound 347, (2,5-Dimethoxybenzyl)-(2-furano-2-ylquinazolino-4-yl)-amine], the “AMPK activity (degree of phosphorylation of serine-79 and threonine-172)” value is 1.2.
The same measure, in the same setting: the value for `COc1ccc(CNc2nc(C(OC)c3ccccc3)nc3ccccc23)cc1OC` (stereo not drawn) [Compound 366, (3,4-Dimethoxybenzyl)-[2-(methoxyphenylmethyl)-quinazolino-4-yl]-amine] was 1.6; that for `CCOc1nc(NCc2ccc(OC)cc2OC)c2ccccc2n1` [Compound 319, (2,4-Dimethoxybenzyl)-(2-ethoxyquinazolino-4-yl)-amine] was 1.5; that for `COc1cccc(CNc2nc(N3CCCCC3)nc3ccccc23)c1` [Compound 280, (3-Methoxybenzyl)-(2-piperidino-1-ylquinazolino-4-yl)-amine] was 1.2.
Still for that read-out and setting: the value for `COc1ccccc1CNc1nc(N2CCOCC2)nc2ccccc12` [Compound 277, (2-Methoxybenzyl)-(2-morpholino-4-ylquinazolino-4-yl)-amine] was 1.3.
